Columns and labels:
[1] = In-vitro half-life in human liver microsomes; format: in vitro ADME; conditions: Human liver microsomes 0.5 mg/mL; 1 μg/mL drug; NRS; read-out: Metabolic Half-life
Description: In each of the species (human, rat, mouse) of liver matrix to be tested, a working concentration of 2 μg/mL was prepared of each test article from the 0.5 mg/mL DMSO stock solution by adding 3 μL of 0.5 mg/mL test article stock solution to 747 μL of the 1 mg/mL liver matrix. Incubation was performed at 37±2° C. with gentle, continuous mixing in shaking water bath in 2.0 mL-well capacity 96-Deepwell plates (96-DWP). Samples were retrieved in duplicate at the following time points: 0, 5, 10, 15, 30 and 60 minutes. The final mixture contained 1 μg/mL of drug and 0.5 mg/mL of liver matrix. First, 50 μL of test articles in liver matrix was added to the 96-DWP and pre-warmed the mixture in the 96-DWP for 2 minutes in the 37° C. water bath. The enzymatic reaction was started by the addition of 50 μL of the corresponding 2× NADPH regenerating system (NRS) cofactor solution to all sample wells and stopped by the addition of 300 μL of stop solution (acetonitrile containing 10 ng/mL Tolbutamide as an internal standard (I.Std.). The samples were agitated for 10 minutes and then centrifuged for 20 minutes at 4500 rpm. 25 μL of supernatant was diluted with 475 μL acetonitrile containing I. Std. into a new 96-DWPs for LC-MS/MS analysis.
Half-life calculations were generated and calculated by Graphpad Prism® software. The half-life of test compound was calculated based on the first-order reaction kinetics. The data was transformed to linear regression (y=log(y) where “y” axis represents the % compound remaining at any given time with respect to time 0 minutes; “x” axis represents time in minutes) in order to calculate the half-life.
A comparison of metabolic stability in time-course incubation experiments in varying species of liver can provide information of pharmacokinetic properties of drugs attributable to species-related differences in hepatic metabolism. The results of these experiments often assist in further applications such as assessing in vitro metabolite profiling and choosing relevant species for toxicology studies based on similarities relative to the metabolic stability to the human profile. For these experiments, the test compound was tested in parallel with a positive control, Dasatinab, in an enzymatic reaction solution of each species (human and rat) of liver microsomes containing a NADPH regenerating system (NRS). The final mixture contained 1 μg/mL of drug and 0.5 mg/mL of liver matrix. Incubations were performed at 37±2° C. with gentle, continuous mixing in shaking water bath in 96-Deep well plates. The stability of the test compound is monitored using fast, specific and sensitive LC/MS/MS analysis.

CYP2C8 = target: T1, CYP2C8 (Homo sapiens, UniProt P10632); assay: CYP-direct inhibition, CYP2C8; format: in vitro ADME
T1 construct: from tissue; host or cells: pooled human liver microsomes
T1 sequence (P10632 1-490): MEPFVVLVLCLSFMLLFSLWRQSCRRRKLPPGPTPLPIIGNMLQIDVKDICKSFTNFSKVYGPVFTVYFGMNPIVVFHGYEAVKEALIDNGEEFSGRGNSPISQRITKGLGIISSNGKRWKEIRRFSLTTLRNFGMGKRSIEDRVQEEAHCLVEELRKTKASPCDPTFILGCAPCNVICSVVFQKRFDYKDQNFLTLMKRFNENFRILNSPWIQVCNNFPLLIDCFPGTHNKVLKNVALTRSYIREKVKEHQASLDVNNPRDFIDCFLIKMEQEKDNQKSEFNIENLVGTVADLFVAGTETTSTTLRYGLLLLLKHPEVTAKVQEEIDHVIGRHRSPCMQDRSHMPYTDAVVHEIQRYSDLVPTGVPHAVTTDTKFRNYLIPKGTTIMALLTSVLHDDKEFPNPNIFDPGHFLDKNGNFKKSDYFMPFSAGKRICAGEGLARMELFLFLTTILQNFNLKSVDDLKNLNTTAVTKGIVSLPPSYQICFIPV
Description: Many drugs inhibit cytochrome P450 enzymes to cause clinically significant changes in the pharmacokinetics of other drugs. In vitro cytochrome P450 inhibition, can provide crucial information in evaluating potential clinical drug-drug interactions and is useful for focusing in vivo tests to areas of concern. The cytochrome P450 inhibition assay was developed by preparing a working cocktail solution consisting of six probe substrates 10 μM ethoxy-resorufin (CYP1A2), 100 μM rosiglitazone (CYP2C8), 50 μM diclofenac (CYP2C9), 300 μM S-mephenytoin (CYP2C19), 50 μM dextromethorphan (CYP2D6), and 20 μM midazolam (CYP3A4). A mixture solution consists of 140 uL of 0.286 mg/mL of pooled human liver microsome working solution and 20 uL working solutions of test articles, standard control inhibitors, or positive control placebo and 20 uL of substrate cocktail mixture working solution was prepared. The mixture solution was pre-warm in a gentle shaking bath at 37±2° C. for 5 minutes. The enzymatic reaction started by adding 20 uL of NRS working solution to the mixture solution and incubated for 10 minutes at 37±2° C. To stop the reaction, an addition of 400 μL cold stop solution (acetonitrile containing 50 ng/mL Tolbutamide as an internal standard (I.Std.) was added to the mixture solution. The final concentration of test article, inhibitors, substrates, and cofactors are noted in Table 0.1 below. Two individual samples were prepared for each test compound. The extracted samples were vortexed and then centrifuged at 4500 rpm for 7 minutes using Eppendorf Centrifuge 5910R. 200 uL of supernatant was diluting with 200 uL of 50% Methanol into 96-DW plate for LC/MS/MS analysis
Concentration-response plots are used to determine the effects of an inhibitor on an enzymatic reaction. A typical concentration-response plot provides fractional activity (Y axis) is plotted as a function of log inhibitor concentration (X axis). The data are fitted using a standard Sigmoidal dose-response equation which is also called a […] logistic equation. The concentration of compound that results in 50% inhibition of maximal activity is termed as the IC50 (inhibitor concentration yielding 50% inhibition). IC50 value is calculated using Prism GraphPad software, version 9. […].
Cytochrome P450 inhibition of a drug is a key factor in determining pharmacokinetic drug-drug interactions. The objective of this study was to evaluate the inhibition potential of G9a inhibitors on six (6) major human cytochrome P450 enzymes, including CYP1A2, CYP2C8, CYP2C9, CYP2C19, CYP2D6, and CYP3A4. Inhibition was determined by using a substrate cocktail and analyzing the rate of specific metabolites formation. The cytochrome P450 inhibition assay was developed using a cocktail consisting of six (6) probe substrates ethoxy-resorufin (CYP1A2), rosiglitazone (CYP2C8), diclofenac (CYP2C9), S-mephenytoin (CYP2C19), dextromethorphan (CYP2D6), and midazolam (CYP3A4). The cocktail was incubated in human liver microsome with NADPH regenerating system (NRS) in a shaking bath at 37±2° C. The formation of specific metabolites was monitored by LC/MS/MS. Test compound was added to the cocktail-liver microsome mixture at varying concentrations and its effect on cytochrome P450 activity was determined by analyzing the rate of specific metabolite formation. The percent inhibition was calculated and plotted with reference to the concentration, and the IC50 value for inhibition was derived by fitting the data with a using log(inhibitor) vs. normalized response with variable slope least squares fit by Graphpad Prism® software. […].

Row | SMILES | half-life at 1 μg/mL [1] [h] | IC50 (CYP2C8) [µM]
1 | COc1cc2c(NC3CCS(=O)(=O)CC3)nc(N3CCC(F)(F)CC3)nc2cc1OCCCN1CCCC1 [Compound 1, 4-((2-(4,4-difluoropiperidin-1-yl)-6-methoxy-7-(3-(pyrrolidin-1-yl)propoxy)quinazolin-4-yl)amino)tetrahydro-2H-thiopyran 1,1-dioxide] | > 1 | 89.1
2 | COc1cc2c(NC3CCOCC3)nc(N3CCC(F)(F)CC3)nc2cc1OCCCN1CCCC1 [Compound 2, 2-(4,4-difluoropiperidin-1-yl)-6-methoxy-7-(3-(pyrrolidin-1-yl)propoxy)-N-(tetrahydro-2H-pyran-4-yl)quinazolin-4-amine] | > 1 | 20.4
3 | COCCN1CCC(Nc2nc(N3CCC(F)(F)CC3)nc3cc(OCCCN4CCCC4)c(OC)cc23)CC1 [Compound 3, 2-(4,4-difluoropiperidin-1-yl)-6-methoxy-N-(1-(2-methoxyethyl)piperidin-4-yl)-7-(3-(pyrrolidin-1-yl)propoxy)quinazolin-4-amine] | > 1 | > 100
4 | COc1cc2c(NCC3CCN(C)CC3)nc(N3CCC(F)(F)CC3)nc2cc1OCCCN1CCCC1 [Compound 5, 2-(4,4-difluoropiperidin-1-yl)-6-methoxy-N-((1-methylpiperidin-4-yl)methyl)-7-(3-(pyrrolidin-1-yl)propoxy)quinazolin-4-amine] | > 1 | > 100
5 | COc1cc2c(NC3CCNCC3)nc(N3CCC(F)(F)CC3)nc2cc1OCCCN1CCCC1 [Compound 8, 2-(4,4-difluoropiperidin-1-yl)-6-methoxy-N-(piperidin-4-yl)-7-(3-(pyrrolidin-1-yl)propoxy)quinazolin-4-amine] | > 1 | > 100
6 | COc1cc2c(NC3CCS(=O)(=O)CC3)nc(N3CCCC3)nc2cc1OCCCN1CCCC1 [Compound 80, 4-((6-methoxy-2-(pyrrolidin-1-yl)-7-(3-(pyrrolidin-1-yl)propoxy)quinazolin-4-yl)amino)tetrahydro-2H-thiopyran 1,1-dioxide] | > 1 | 23.4
7 | COc1cc2c(NC3CCS(=O)(=O)CC3)nc(N3CCOCC3)nc2cc1OCCCN1CCCC1 [Compound 102, 4-((6-methoxy-2-morpholino-7-(3-(pyrrolidin-1-yl)propoxy)quinazolin-4-yl)amino)tetrahydro-2H-thiopyran 1,1-dioxide] | > 1 | 60.6
8 | COc1cc2c(NC3CCS(=O)(=O)CC3)nc(N3CCS(=O)(=O)CC3)nc2cc1OCCCN1CCCC1 [Compound 103, 4-(4-((1,1-dioxidotetrahydro-2H-thiopyran-4-yl)amino)-6-methoxy-7-(3-(pyrrolidin-1-yl)propoxy)quinazolin-2-yl)thiomorpholine 1,1-dioxide] | > 1 | > 100
9 | COc1cc2c(NC3CCS(=O)(=O)CC3)nc(N3CCN(C)CC3)nc2cc1OCCCN1CCCC1 [Compound 109, 4-((6-methoxy-2-(4-methylpiperazin-1-yl)-7-(3-(pyrrolidin-1-yl)propoxy)quinazolin-4-yl)amino)tetrahydro-2H-thiopyran 1,1-dioxide] | 0.342 | > 100
10 | COc1cc2c(NC3CCS(=O)(=O)CC3)nc(N3CCCN(C)CC3)nc2cc1OCCCN1CCCC1 [Compound 110, 4-((6-methoxy-2-(4-methyl-1,4-diazepan-1-yl)-7-(3-(pyrrolidin-1-yl)propoxy)quinazolin-4-yl)amino)tetrahydro-2H-thiopyran 1,1-dioxide] | > 1 | > 100

Further lines, results first:

Row | half-life at 1 μg/mL [1] [h] | IC50 (CYP2C8) [µM] | SMILES
11 | > 1 | 27.4 | COCCNc1nc(N2CCC(F)(F)CC2)nc2cc(OCCCN3CCCC3)c(OC)cc12 [Compound 4, 2-(4,4-difluoropiperidin-1-yl)-6-methoxy-N-(2-methoxyethyl)-7-(3-(pyrrolidin-1-yl)propoxy)quinazolin-4-amine]
12 | > 1 | 75.7 | COc1cc2c(Nc3ccncc3)nc(N3CCC(F)(F)CC3)nc2cc1OCCCN1CCCC1 [Compound 7, 2-(4,4-difluoropiperidin-1-yl)-6-methoxy-N-(pyridin-4-yl)-7-(3-(pyrrolidin-1-yl)propoxy)quinazolin-4-amine]
13 | > 1 | > 100 | COc1cc2c(NCC(N)=O)nc(N3CCC(F)(F)CC3)nc2cc1OCCCN1CCCC1 [Compound 9, 2-((2-(4,4-difluoropiperidin-1-yl)-6-methoxy-7-(3-(pyrrolidin-1-yl)propoxy)quinazolin-4-yl)amino)acetamide]
14 | > 1 | 16 | COc1cc2c(NC3COC3)nc(N3CCC(F)(F)CC3)nc2cc1OCCCN1CCCC1 [Compound 11, 2-(4,4-difluoropiperidin-1-yl)-6-methoxy-N-(oxetan-3-yl)-7-(3-(pyrrolidin-1-yl)propoxy)quinazolin-4-amine]
15 | > 1 | 4.66 | COc1cc2c(Nc3ccncc3)nc(-n3ccnc3)nc2cc1OCCCN1CCCC1 [Compound 130, 2-(1H-imidazol-1-yl)-6-methoxy-N-(pyridin-4-yl)-7-(3-(pyrrolidin-1-yl)propoxy)quinazolin-4-amine]
